Legend:
S. aureus Newman [1] = assay: Two-dimensional thermal proteome profiling (2D-TPP), whole cell and lysate; assay type: cell-based, Staphylococcus aureus; conditions: for thermal stability of ATP- and GTP-binding enzymes and transporters: ticagrelor 0.04-4 μg/ml
S. aureus Newman [2] = assay: Ticagrelor MIC upon purine supplementation; assay type: cell-based, Staphylococcus aureus; conditions: supplementation with adenosine, inosine or their combination; SSM9PR medium with 1% glucose
Description: (§1) MICs were tested in all strains for the main screen. Drugs were two-fold serially diluted in 11 concentrations, and 32 no-drug control wells were included in each plate. Experiments were conducted in 384-well plates (ref. 781271 by Greiner BioOne), with a total volume of 30 μl for S. aureus and B. subtilis and 55 μl for S. pneumoniae. Volumes were optimized for each strain to achieve good dynamic range for growth and minimize risk of cross-contamination between wells. Plates were inoculated with a starting optical density at 595 nm (OD595 nm) of 0.01 from an overnight culture. All liquid handling was performed using a Biomek FX liquid handler (Beckman Coulter). Plates were sealed with breathable membranes and incubated at 37° C. OD595 nm was measured every 30 minutes for 14 hours. The MIC was considered as the first concentration at which growth was inhibited. Experiments were conducted in biological duplicates. For the adjuvant screen, antibiotics were tested in S. aureus DSM 20231 at the same concentrations as for the main screen. Non-antibiotics concentrations were selected to fall within therapeutic ranges.
Ticagrelor (ref. SML2482, Sigma-Aldrich) MIC was measured upon purine supplementation in S. aureus Newman as described above in SSM9PR minimal medium supplemented with 1% glucose79, in 384-well plates (ref. 781271 by Greiner BioOne) with a final volume of 30 μl. […]

S. aureus DSM 20231 = assay: Adjuvant (extended non-antibiotic) combination screen; assay type: cell-based, Staphylococcus aureus
Description: as §1
62 drugs, hereafter designated as recipients, were arrayed in 384-well plates (ref. 781271 by Greiner BioOne) in three two-fold serial dilutions and two technical replicates. Concentrations were selected according to MICs, with the highest concentration corresponding to the MIC, and the intermediate and lowest concentration corresponding to ½ and ¼ MIC, respectively. Plates were kept frozen and defrosted upon each experimental run, when the same 62 drugs and in the same three concentrations were added as donor drugs (one drug at one concentration for each recipient plate). A few drugs were screened only as donors: the combinations co-amoxiclav and cotrimoxazole in B. subtilis and S. aureus DSM 20231; co-amoxiclav, clavulanic acid, pseudomonic acid and cefuroxime in S. aureus Newman. All donor drugs were tested in two biological replicates. Control wells were included in each plate (six no-drug wells, three plain medium wells and three wells containing only the donor drug). After the addition of donor drugs, plates were inoculated with cells. Handling, inoculation, growth conditions, plate incubation and OD595 nm measurements were performed as for the MIC determination.
For the adjuvant screen, 44 non-antibiotic drugs were tested against the same recipient drugs of the main screen for S. aureus DSM 20231.
The inventors selected 44 drugs to include pharmaceuticals that can be co-administered with antibiotics in S. aureus infections or non-antibiotics with previously reported antibacterial activity against S. aureus. […] Interactions were scored and benchmarked as for the main screen (Methods).

MRSA = assay: G. mellonella infection model, drug combination therapy; assay type: in vivo, Galleria mellonella; conditions: G. mellonella infected with MRSA isolate resistant to tigecycline, gentamicin 2 μg/ml, ticagrelor 100 μg/ml (FIG. 5e)
Description: Drug interaction networks in S. aureus, with drugs grouped according to their class (a) or targeted cellular process (b). Unique interactions across both strains tested are considered (i=331). Edge thickness represents the proportion of interactions for each node pair, considering all possible interactions given the number of drugs in each node. Nodes depict the drug class (a) or the targeted cellular process (b), and size is proportional to the number of drugs in the represented class/process. Only interacting drugs are considered (d=62). Synergies, antagonisms and nodes are colored according to FIG. 1. c. Novel and previously reported interactions detected in S. aureus. Interactions are considered known if reported in any S. aureus strain (Supplementary Table 4). d-e. Novel synergies are effective against MRSA clinical isolates in vitro (d) and in vivo in the G. mellonella infection model (e). […] The percentage of surviving larvae after treatment and in the untreated controls was monitored over time. […]
Larvae of the greater wax moth (Galleria mellonella) at their final instar larval stage were used for evaluation of selected drug combinations to assess their efficacy against MRSA in vivo. […] The survival of Galleria larvae was monitored at the indicated time points by two observers independently. Each strain-drug combination was evaluated in three independent experiments.

## CCCSc1nc(N[C@@H]2C[C@H]2c2ccc(F)c(F)c2)c2nnn([C@@H]3C[C@H](OCCO)[C@@H](O)[C@H]3O)c2n1 [ticagrelor]
S. aureus Newman [1]; live cells
  abundance of purine biosynthesis enzymes (PurC, PurD, PurE, PurF, PurK, PurL, PurM, PurN, PurQ): induction
S. aureus Newman [1]; lysate
  thermal stability of DltC and DltD (LTA D-alanylation): destabilized
  thermal stability of ATP- and GTP-binding enzymes and transporters: destabilization
S. aureus Newman [1]; lysate, clinically-relevant ticagrelor concentration
  thermal stability of ClfA, ClfB, coagulase Coa and vWBP: destabilization
S. aureus Newman [1]; whole cell sample
  thermal stability of TagG (WTA translocase subunit): destabilized
S. aureus Newman [1]; whole cell
  thermal stability of ATP- and GTP-binding enzymes and transporters: destabilization
S. aureus Newman [1]; whole-cell samples, clinically-relevant ticagrelor concentration
  abundance of ClfA, ClfB, coagulase Coa and vWBP: downregulation
S. aureus Newman [2]
  change of MIC upon purine supplementation: increased
S. aureus DSM 20231; S. aureus, non-antibiotic drugs with antibiotics
  number of synergies: 13
S. aureus DSM 20231; among the 44 non-antibiotics tested, against panel of 62 drugs, S. aureus DSM 20231
  number of interactions: 27
MRSA
  interaction with gentamicin in vivo (survival of infected larvae): evident
MRSA; listed as Ticagrelor
  interaction with gentamicin in vivo (survival of infected larvae): synergizes

— patent US20260102460A1, “NOVEL COMBINATIONS OF ANTIBIOTICS AND NON-ANTIBIOTIC DRUGS EFFECTIVE IN VIVO AGAINST GRAM-POSITIVE BACTERIA, IN PARTICULAR METHICILLIN-RESISTANT S. AUREUS (MRSA)” (EUROPEAN MOLECULAR BIOLOGY LABORATORY, priority 2022, published 2026)
